Test results as given in patent publication US7323481B2, “Thiazolidinediones alone or in combination with other therapeutic agents for inhibiting or reducing tumour growth” (Hoffmann-La Roche Inc., priority 2001, dated 2008).

How the values were obtained:
[1] = target: T1, PPAR gamma (Homo sapiens, UniProt P37231); assay: PPAR gamma stimulating activity (PPAR-mediated gene expression), alone and with 9-cis retinoic acid; format: cell-based; details: DMSO-treated cells = 1
T1 sequence (P37231 1-505): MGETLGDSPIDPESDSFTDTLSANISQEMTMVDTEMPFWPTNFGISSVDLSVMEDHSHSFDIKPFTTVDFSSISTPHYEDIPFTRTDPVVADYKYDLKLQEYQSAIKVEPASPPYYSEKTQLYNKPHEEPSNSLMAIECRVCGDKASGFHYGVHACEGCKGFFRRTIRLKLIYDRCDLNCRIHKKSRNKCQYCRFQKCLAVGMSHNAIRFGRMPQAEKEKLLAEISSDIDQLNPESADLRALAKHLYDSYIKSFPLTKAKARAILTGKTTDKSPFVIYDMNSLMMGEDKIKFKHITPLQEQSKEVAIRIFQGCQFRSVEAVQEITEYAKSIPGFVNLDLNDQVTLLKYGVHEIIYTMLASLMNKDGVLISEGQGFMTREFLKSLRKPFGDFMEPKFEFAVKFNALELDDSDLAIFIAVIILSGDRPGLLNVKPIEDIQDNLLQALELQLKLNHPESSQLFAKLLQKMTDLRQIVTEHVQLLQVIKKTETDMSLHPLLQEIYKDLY
Protocol: (§1) Female SCID beige mice were inoculated subcutaneously with 1×10^6 CX-1 human colon carcinoma cells. For 42 days 10 animals per group were orally treated with troglitazone, BM 13.1258 or BM 15.2054 (suspension in 0.5% methylcellulose). The development of tumor volume (measured in mm^3) was determined on day 45. Furthermore, following autopsy the lungs were histologically inspected for micrometastases. Inhibition of tumor growth and inhibition of number of pulmonal metastases were calculated as 100 minus tumor volume or number of metastases of the test group divided by that of the vehicle group expressed as a percentage. PPAR gamma stimulating activity of the compounds alone and in combination with the RXR specific agonist 9-cis retinoic acid were determined in accordance with a known method (Furnsinn, C., et al., Br. J. Pharmacol. 128 (1999) 1141-1148). The relative activation of PPAR-mediated gene expression is given as x-fold stimulation compared to DMSO-treated cells (activation=1).

[2] = test system: CX-1 human colon carcinoma cells; assay: CX-1 human colon carcinoma xenograft in SCID beige mice: tumor volume and pulmonal micrometastases; format: in vivo; details: for Inhibition relative to vehicle group (tumor volume): day 45; for Mean tumor volume: measured on day 45; for Effect on metastatic load: human xenograft models; for Number of metastases: lung micrometastases per group, histology after autopsy
Protocol: as §1

[3] = test system: human cancer cells (breast cancer, colon cancer, prostate cancer); assay: Inhibition of cell proliferation in human cancer cells; format: cell-based; details: human cancer cells of various tissue origins, e.g. breast, colon and prostate cancer
[4] = thiazolidinedione 10^−6 M in combination with 9-cis RA 10^−6 M
[5] = thiazolidinedione 10^−6 M, no 9-cis RA
[6] = thiazolidinedione 10^−7 M in combination with 9-cis RA 10^−6 M
[7] = thiazolidinedione 10^−7 M, no 9-cis RA

Relative activation of PPAR-mediated gene expression [1, 4]	Relative activation of PPAR-mediated gene expression [1, 5]	Relative activation of PPAR-mediated gene expression [1, 6]	Relative activation of PPAR-mediated gene expression [1, 7]	SMILES	Inhibition relative to vehicle group (tumor volume) ([2]; 50 mg/kg oral for 42 days)	Mean tumor volume ([2]; 50 mg/kg oral for 42 days)	Effect on metastatic load [2]	Inhibition of cell proliferation [3]	other results
				CC1=C(/C=C/C(C)=C\C=C\C(C)=C\C(=O)O)C(C)(C)CCC1 [9-cis RA, 9-cis retinoic acid, reference compound]					Relative activation of PPAR-mediated gene expression ([1]; 9-cis RA 10^−6 M, no thiazolidinedione): 4.1 x-fold
28.0 x-fold	4.0 x-fold	24.4 x-fold	3.7 x-fold	Cc1oc(-c2ccccc2)nc1CCOc1ccc(CC2SC(=O)NC2=O)c2sccc12 (stereo not drawn) [BM 13.1258, 5-{4-[2-(5-Methyl-2-phenyloxazol-4-yl) -ethoxy]-benzo[b]thiophen-7-ylmethyl}-thiazolidine-2,4-dione]	40%	604 mm^3	reduce the metastatic load	inhibit cell proliferation	Anti-tumor effect compared with troglitazone ([2]; SCID beige mice, Table 1): superior to that of troglitazone; Reduction of size of colon carcinoma ([2]; SCID beige mice, Table 1): effective in reducing the size of colon carcinoma
18.5 x-fold	3.5 x-fold	15.6 x-fold	4.3 x-fold	Cc1oc(-c2cccs2)nc1CCOc1ccc(CC2SC(=O)NC2=O)c2sccc12 (stereo not drawn) [BM 15.2054, 5-{4-[2-(5-Methyl-2-(thien-2-yl)oxazol-4-yl)-ethoxy]-benzo[b]thiophen-7-ylmethyl}-thiazolidine-2,4-dione]	28%	719 mm^3	reduce the metastatic load	inhibit cell proliferation	Inhibition relative to vehicle group (number of metastases) ([2]; 10 mg/kg oral for 42 days): 34%; Inhibition relative to vehicle group (tumor volume) ([2]; 10 mg/kg oral for 42 days): 30%; Mean tumor volume ([2]; 10 mg/kg oral for 42 days): 702 mm^3; Number of metastases ([2]; 10 mg/kg oral for 42 days): 216; Inhibition relative to vehicle group (number of metastases) ([2]; 50 mg/kg oral for 42 days): 32%; Number of metastases ([2]; 50 mg/kg oral for 42 days): 223; Number of lung metastases compared to the vehicle group ([2]; Table 2): significantly (p<0.05) reduced
				Cc1c(C)c2c(c(C)c1O)CCC(C)(COc1ccc(CC3SC(=O)NC3=O)cc1)O2 (stereo not drawn) [Troglitazone, troglitazone, reference compound]					Inhibition relative to vehicle group (number of metastases) ([2]; 200 mg/kg oral for 42 days): −8%; Inhibition relative to vehicle group (tumor volume) ([2]; 200 mg/kg oral for 42 days): 20%; Mean tumor volume ([2]; 200 mg/kg oral for 42 days): 804 mm^3; Number of metastases ([2]; 200 mg/kg oral for 42 days): 352
